One test concerns the target human recombinant BACE1 (Homo sapiens (Human), UniProt P56817). As to the kind of experiment: In vitro enzymatic BACE1 FRET assay. The format is biochemical. As to conditions: read-out: BACE1 Enzyme IC50. As for the experimental part: (§1) In Vitro Enzymatic BACE1 and BACE2 FRET (Fluorescence Resonance Energy Transfer) Assays […] These recombinant proteins were further purified using Ni-NTA affinity chromatography (Qiagen). […] The assay was effectively started by the addition of FRET substrate (50 nM) and the combination was incubated for one hour. The FRET assay was terminated by the addition of tris buffer, which raised the pH to neutrality, and the fluorescence was determined. The FRET substrate was a peptide with commercially available fluorophore and quencher, on opposite sides of the BACE cleavage site. The specific FRET substrate used in this assay was made by Amgen in-house. Commercially available FRET substrates, for example, the FRET substrate offered with the BACE1 FRET Assay Kit sold by ThermoFisher Scientific (Catalog Number P2985), may be used in this assay with the appropriate modifications, which are within the purview of the ability of a person with ordinary skill in the art. Proteolytic cleavage of the FRET substrate released quenching of fluorescence (excitation 488 nm and emission 590 nm).

Test [1] deals with BACE1 (Aβ40 from cells stably expressing Amyloid Precursor Protein). As to the kind of experiment: In vitro BACE1 cell-based assay (Aβ40 in conditioned medium, HTRF). As for the experimental part: In Vitro BACE1 Cell-Based Assay The cell-based assay measures inhibition or reduction of Aβ40 in conditioned medium of test compound treated cells expressing amyloid precursor protein. Cells stably expressing Amyloid Precursor Protein (APP) were plated at a density of 45K cells/well in 384 well plates (Corning/BioCoat 354663). The test compounds were then added to cells in 22-point dose response concentrations with the starting concentration being 62.5 μM. The compounds were diluted from stock solutions in DMSO and the final DMSO concentration of the test compounds on cells was 0.625%. The cells were cultivated overnight at 37° C. and 5% CO2 in DMEM supplemented with 10% FBS. After 24 h of incubation with the test compounds, the conditioned media was collected and the Aβ40 levels were determined using HTRF (Homogeneous Time Resolved Fluorescence). […] The HTRF to detect Aβ40 was performed in 384 well plates (Costar 3658). The antibody pair that were used to detect Aβ 40 from cell supernatants were ConfAb40 antibody (Amgen in-house) and biotinylated 6E10 (BIOLEGEND). As an alternative to ConfAb40, a commercially available antibody, Anti-beta Amyloid 1-40 antibody [BDI350] from Abcam, Cambridge, Mass. 02139-1517 (Product code: ab20068), may be used in this assay. […] The conditioned media was incubated with above antibodies and Streptavidin Allophycocyanin Conjugate for 30-60 minutes at 23° C. The final readout was performed on Envision from PerkinElmer.
Background: In TR-FRET formats the signal depends on donor and acceptor labels being close together.

For another test, the target named is Recombinant CatD (Homo sapiens (Human), UniProt P07339). In words: In vitro enzymatic Cathepsin D (CatD) FRET assay. The format is biochemical. As to conditions: read-out: Cat D Enzyme IC50. As for the experimental part: In Vitro Enzymatic Cathepsin D (CatD) FRET Assay Recombinant CatD was expressed in CHO cells. The assay buffer for CatD was 0.05 M citrate pH 3.5, 10% DMSO final, 5 mM CHAPS. […] The assays was effectively started by the addition of different FRET substrates (20 nM for CatD) and the combination was incubated for one hour. The FRET assay was terminated with by addition of tris buffer, which raises the pH to neutrality, and the fluorescence was determined. The FRET substrate was a peptide with commercially available fluorophore and quencher, on opposite sides of the CatD cleavage site. The CatD substrate peptide sequence was based on sequence #1 of Table 1 from Gulnik et al., FEBS Lett. 413(2):379-384 (1997). Proteolytic cleavage of the FRET substrate released quenching of fluorescence (CatD excitation 500 nm and emission 580 nm). The in vitro CatD FRET assay data for each of the Examples is provided in Table 2, conducted by the first procedure described above. […] Thus, with this surprising selectivity profile, the compounds provided herein are believed to minimize, reduce or completely eliminate any risk of retinal atrophy and abnormal development of the eye and of the retinal pigmented epithelium as it relates to the normal function and activity of CatD.

Another test has as its target human recombinant BACE2 (Homo sapiens (Human), UniProt Q9Y5Z0). In words: In vitro enzymatic BACE2 FRET assay. It is filed as biochemical. As to conditions: read-out: BACE2 Enzyme IC50. The protocol:
as §1

Setting [2] is: Aβ40, 24 h incubation, read-out: BACE1 Cell IC50.

Like-named read-outs stand apart in the source and are kept apart here. Bounds are passed on as bounds.

Sequence of human recombinant BACE2 (Q9Y5Z0 63-518): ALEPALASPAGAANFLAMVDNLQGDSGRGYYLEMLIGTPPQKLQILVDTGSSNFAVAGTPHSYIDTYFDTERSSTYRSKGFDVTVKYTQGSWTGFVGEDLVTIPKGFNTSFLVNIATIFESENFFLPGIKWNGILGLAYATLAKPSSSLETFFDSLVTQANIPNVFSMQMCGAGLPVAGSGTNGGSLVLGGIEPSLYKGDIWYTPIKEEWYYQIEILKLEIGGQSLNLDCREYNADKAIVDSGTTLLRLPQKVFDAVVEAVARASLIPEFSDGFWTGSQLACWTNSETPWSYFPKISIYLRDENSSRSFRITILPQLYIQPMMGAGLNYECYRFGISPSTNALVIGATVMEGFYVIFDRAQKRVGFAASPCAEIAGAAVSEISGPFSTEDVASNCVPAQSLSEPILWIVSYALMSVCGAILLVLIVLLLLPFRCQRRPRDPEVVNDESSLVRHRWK
Sequence of human recombinant BACE1 (P56817 46-501): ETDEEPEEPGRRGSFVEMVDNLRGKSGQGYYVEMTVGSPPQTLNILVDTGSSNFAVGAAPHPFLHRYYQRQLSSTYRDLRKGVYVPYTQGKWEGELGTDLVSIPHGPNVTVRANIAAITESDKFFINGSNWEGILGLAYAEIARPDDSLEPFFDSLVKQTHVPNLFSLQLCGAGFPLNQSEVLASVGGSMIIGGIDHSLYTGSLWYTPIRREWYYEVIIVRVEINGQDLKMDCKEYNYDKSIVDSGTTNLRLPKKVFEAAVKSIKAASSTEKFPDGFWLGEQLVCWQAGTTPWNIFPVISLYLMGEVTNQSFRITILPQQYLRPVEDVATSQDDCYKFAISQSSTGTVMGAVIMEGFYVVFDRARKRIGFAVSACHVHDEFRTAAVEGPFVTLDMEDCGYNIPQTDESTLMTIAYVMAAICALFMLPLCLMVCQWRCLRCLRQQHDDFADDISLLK
Sequence of Recombinant CatD (P07339 65-412): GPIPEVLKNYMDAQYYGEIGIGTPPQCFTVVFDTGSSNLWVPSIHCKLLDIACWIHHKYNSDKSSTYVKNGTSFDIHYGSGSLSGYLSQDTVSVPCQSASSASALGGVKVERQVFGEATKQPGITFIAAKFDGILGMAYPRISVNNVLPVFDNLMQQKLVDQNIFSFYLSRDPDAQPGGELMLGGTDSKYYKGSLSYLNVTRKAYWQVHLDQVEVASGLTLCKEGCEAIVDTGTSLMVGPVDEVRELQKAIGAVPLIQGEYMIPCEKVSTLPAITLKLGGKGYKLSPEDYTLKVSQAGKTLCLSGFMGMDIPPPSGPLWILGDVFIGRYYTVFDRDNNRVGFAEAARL

For orientation: IC50 means the midpoint of a concentration-inhibition curve. In the case of `N#Cc1ccc(/C(F)=C/c2ccc(F)c([C@@]34CO[C@@H](C(F)(F)F)[C@@H]3CSC(N)=N4)c2)nc1` [Example 125, 6-((Z)-2-(3-((4aR,5R,7aR)-2-amino-5-(trifluoromethyl)-4a,5,7,7a-tetrahydro-4H-furo[3,4-d][1,3]thiazin-7a-yl)-4-fluorophenyl)-1-fluorovinyl)nicotinonitrile], the IC50 on human recombinant BACE1 amounted to 2540 nM; in test [1] (setting [2]), 1.39 µM; on Recombinant CatD, 30600 nM; at human recombinant BACE2, 18000 nM.

Consider `C#CCOc1cnc(/C(F)=C/c2ccc(F)c([C@]34CO[C@H](C(F)(F)F)[C@H]3CSC(N)=N4)c2)cn1` [Example 127, (4aS,5S,7aS)-7a-(2-fluoro-5-((Z)-2-fluoro-2-(5-(prop-2-ynyloxy)pyrazin-2-yl)vinyl)phenyl)-5-(trifluoromethyl)-4a,5,7,7a-tetrahydro-4H-furo[3,4-d][1,3]thiazin-2-amine], for which the half-maximal inhibitory concentration (IC50) on human recombinant BACE1 was 103 nM; in test [1] (24 h, read-out: BACE1 Cell IC50 (μM)) it was 0.0243 µM; at Recombinant CatD, 160000 nM; on human recombinant BACE2, 2900 nM.

Regarding `NC1=N[C@@]2(c3cc(/C=C(\F)c4ccc(OC(F)(F)F)cn4)ccc3F)CO[C@H](C(F)(F)F)[C@H]2CS1` [Example 129, (4aS,5S,7aS)-7a-(2-fluoro-5-((Z)-2-fluoro-2-(5-(trifluoromethoxy)pyridin-2-yl)vinyl)phenyl)-5-(trifluoromethyl)-4a,5,7,7a-tetrahydro-4H-furo[3,4-d][1,3]thiazin-2-amine], the IC50 at human recombinant BACE1 was 108 nM; in test [1] (setting [2]), 0.0151 µM; at Recombinant CatD it was above 44400 nM; at human recombinant BACE2 it was 2220 nM.

Consider `COc1nc(N2C[C@H]3CSC(N)=N[C@@]3(c3cc(/C=C(\F)c4ccc(C#N)cn4)ccc3F)C2)nc(C)c1F` [Example 130, 6-((Z)-2-(3-((4aR,7aS)-2-amino-6-(5-fluoro-4-methoxy-6-methylpyrimidin-2-yl)-4,4a,5,6,7,7a-hexahydropyrrolo[3,4-d][1,3]thiazin-7a-yl)-4-fluorophenyl)-1-fluorovinyl)nicotinonitrile], for which the concentration for half-maximal inhibition (IC50) at human recombinant BACE1 came out at 0.405 nM; in test [1] (setting [2]), 0.000906 µM; at Recombinant CatD, 25800 nM; on human recombinant BACE2, 1.78 nM.

Regarding `N#Cc1ccc(/C(F)=C/c2ccc(F)c([C@]34CO[C@H](CF)[C@H]3CSC(N)=N4)c2)nc1` [Example 131, 6-((Z)-2-(3-((4aS,5S,7aS)-2-amino-5-(fluoromethyl)-4a,5,7,7a-tetrahydro-4H-furo[3,4-d][1,3]thiazin-7a-yl)-4-fluorophenyl)-1-fluorovinyl)nicotinonitrile], the 50% inhibitory concentration (IC50) at human recombinant BACE1 is 3.83 nM; in test [1] (setting [2]) it was 0.0115 µM; at Recombinant CatD, above 400000 nM; on human recombinant BACE2, 427 nM.

In the case of `NC1=N[C@@]2(c3cc(/C=C(\F)c4ccc(F)cn4)ccc3F)CO[C@H](C(F)(F)F)[C@H]2CS1` [Example 132, (4aS,5S,7aS)-7a-(2-fluoro-5-((Z)-2-fluoro-2-(5-fluoropyridin-2-yl)vinyl)phenyl)-5-(trifluoromethyl)-4a,5,7,7a-tetrahydro-4H-furo[3,4-d][1,3]thiazin-2-amine], the IC50 at human recombinant BACE1 was 426 nM; in test [1] (setting [2]), 0.112 µM; on Recombinant CatD, above 400000 nM; on human recombinant BACE2, 427 nM.

`N#Cc1ccc(/C(F)=C/c2ccc(F)c([C@@]34CO[C@@H](CF)[C@@H]3CSC(N)=N4)c2)nc1` [Example 133, 6-((Z)-2-(3-((4aR,5R,7aR)-2-amino-5-(fluoromethyl)-4a,5,7,7a-tetrahydro-4H-furo[3,4-d][1,3]thiazin-7a-yl)-4-fluorophenyl)-1-fluorovinyl)nicotinonitrile]: the concentration for half-maximal inhibition (IC50) at human recombinant BACE1 came out at 1220 nM; in test [1] (setting [2]), 2 µM; on Recombinant CatD it was 139000 nM; at human recombinant BACE2, 28000 nM.

As to `COc1nc(N2C[C@H]3CSC(N)=N[C@@]3(c3cc(/C=C(\F)c4ccc(C#N)cn4)ccc3F)C2)ncc1F` [Example 134, 6-((Z)-2-(3-((4aR,7aS)-2-amino-6-(5-fluoro-4-methoxypyrimidin-2-yl)-4,4a,5,6,7,7a-hexahydropyrrolo[3,4-d][1,3]thiazin-7a-yl)-4-fluorophenyl)-1-fluorovinyl)nicotinonitrile], the concentration for half-maximal inhibition (IC50) at human recombinant BACE1 was 1.4 nM; in test [1] (setting [2]), 0.0009 µM; on Recombinant CatD, 59300 nM; at human recombinant BACE2 it was 4.3 nM.

For `N#Cc1ccc(/C(F)=C/c2ccc(F)c([C@]34CN(c5ncccn5)C[C@H]3CSC(N)=N4)c2)nc1` [Example 135, 6-((Z)-2-(3-((4aR,7aS)-2-amino-6-(pyrimidin-2-yl)-4,4a,5,6,7,7a-hexahydropyrrolo[3,4-d][1,3]thiazin-7a-yl)-4-fluorophenyl)-1-fluorovinyl)nicotinonitrile], the half-inhibitory concentration (IC50) on human recombinant BACE1 came out at 4.3 nM; in test [1] (setting [2]), 0.0018 µM; at Recombinant CatD, 106000 nM; at human recombinant BACE2, 22.3 nM.

With `COc1cnc(/C(F)=C/c2ccc(F)c([C@]34CO[C@H](C(F)(F)F)[C@H]3CSC(N)=N4)c2)cn1` [Example 136, (4aS,5S,7aS)-7a-(2-fluoro-5-((Z)-2-fluoro-2-(5-methoxypyrazin-2-yl)vinyl)phenyl)-5-(trifluoromethyl)-4a,5,7,7a-tetrahydro-4H-furo[3,4-d][1,3]thiazin-2-amine], the IC50 at human recombinant BACE1 was 622 nM; in test [1] (setting [2]), 2.03 µM; on Recombinant CatD, above 400000 nM; on human recombinant BACE2 it was 6630 nM.

With `NC1=N[C@@]2(c3cc(/C=C(\F)c4ncc(C(F)(F)F)cc4Cl)ccc3F)CO[C@H](C(F)(F)F)[C@H]2CS1` [Example 137, (4aS,5S,7aS)-7a-(5-((Z)-2-(3-chloro-5-(trifluoromethyl)pyridin-2-yl)-2-fluorovinyl)-2-fluorophenyl)-5-(trifluoromethyl)-4a,5,7,7a-tetrahydro-4H-furo[3,4-d][1,3]thiazin-2-amine], the IC50 is 15 nM on human recombinant BACE1, 0.2 µM in test [1] (setting [2]), 382000 nM on Recombinant CatD and 605 nM on human recombinant BACE2.

Turning to `Cc1cc(C#N)cnc1/C(F)=C/c1ccc(F)c([C@]23CO[C@H](C(F)(F)F)[C@H]2CSC(N)=N3)c1` [Example 138, 6-((Z)-2-(3-((4aS,5S,7aS)-2-amino-5-(trifluoromethyl)-4a,5,7,7a-tetrahydro-4H-furo[3,4-d][1,3]thiazin-7a-yl)-4-fluorophenyl)-1-fluorovinyl)-5-methylnicotinonitrile], the 50% inhibitory concentration (IC50) was 27.2 nM at human recombinant BACE1, 0.116 µM in test [1] (setting [2]), above 400000 nM at Recombinant CatD and 1140 nM at human recombinant BACE2.

`NC1=N[C@@]2(c3cc(/C=C(\F)c4ccc(C(F)(F)F)cn4)ccc3F)CO[C@H](C(F)(F)F)[C@H]2CS1` [Example 139, (4aS,5S,7aS)-7a-(2-fluoro-5-((Z)-2-fluoro-2-(5-(trifluoromethyl)pyridin-2-yl)vinyl)phenyl)-5-(trifluoromethyl)-4a,5,7,7a-tetrahydro-4H-furo[3,4-d][1,3]thiazin-2-amine]: the 50% inhibitory concentration (IC50) was 15.8 nM on human recombinant BACE1, 0.117 µM in test [1] (setting [2]), above 400000 nM on Recombinant CatD and 1500 nM on human recombinant BACE2.
